Publication PMC8580996, “2-Oxoglutarate derivatives can selectively enhance or inhibit the activity of human oxygenases” (Nature Communications, 2021)

Legend:
FIH [1] = biological target: T1, FIH (Homo sapiens, UniProt Q9NWT6); experiment: Mechanism of FIH inhibition: 2OG kinetics at variable concentrations of 18 (Ki, Cornish-Bowden plot); type: biochemical; conditions: absence of 18, HIF-1α788-822
Procedure: Supplementary Figure 28. Determination of the FIH Kapp for 4-(3-phenylprop-1-yl)-2OG (18) (continues on […]
the following page). […]
(LAA), and 20 μM ammonium iron(II) sulfate hexahydrate (FAS, (NH4)2Fe(SO4)2·6H2O) in buffer (50 mM Tris, 50 mM NaCl, pH 7.5, 20° C). Measurement times were normalized to the first sample injection analyzed after the […]
are shown as the mean of independent triplicates (n = 3; mean ± standard deviation, SD). […]
2OG concentrations, determined in the presence of 0.5 μM 18; (e) hydroxylation rates used for the kinetic analysis; […]

FIH [2] = biological target: T1, FIH; experiment: 1H NMR assay of FIH-catalyzed oxidative decarboxylation of cosubstrate, with SPE-MS of final mixture; type: biochemical; conditions: 5 μM FIH, 150 μM CA1-20, 150 μM cosubstrate; for hydroxylation of CA1-20 peptide in final reaction mixture (SPE-MS): t = 10 min; for FIH-catalyzed conversion of cosubstrate to succinate / 2-methylsuccinate (1H NMR): within 5 min
Procedure: Supplementary Figure 2. […] FIH- […]
catalyzed oxidative decarboxylation of 2OG was monitored using a Bruker AVIII 700 NMR machine equipped with a 5 mm 1H(13C/15N) inverse cryoprobe; spectra were analyzed using the Bruker TopSpin 3.6.1 software.
50 μM ammonium iron(II) sulfate hexahydrate (FAS, (NH4)2Fe(SO4)2·6H2O) in 50 mM aqueous Tris-d11 containing 10% v/v D2O (pH 7.5, 25° C). The ratio of the CA 1-20 peptide and the hydroxylated CA 1-20(Ox) peptide, which is the product of the F IH-catalyzed hydroxylation reaction, was determined using SPE-MS after NMR […]
(a) Close-up (3.0-2.2 ppm) of the 1H NMR spectrum of commercial 2OG in 50 mM aqueous Tris-d11 containing 10%v/v D2O (pH 7.5, 25° C); (b) Close-up (3.0-2.2 ppm) of the 1H NMR spectrum of commercial succinate in 50 […]
FIH-catalyzed oxidative decarboxylation of 3-methyl-2OG (1) was monitored using a Bruker AVIII 700 NMR machine equipped with a 5 mm 1H(13C/15N) inverse cryoprobe; spectra were analyzed using the […]
Bruker TopSpin 3.6.1 software. […]
in 50 mM aqueous Tris -d11 containing 10% v/v D2O (pH 7.5, 25° C). The ratio of the CA 1-20 peptide and the hydroxylated CA 1-20(Ox) peptide, which is the product of the FIH -catalyzed hydroxylation reaction, was […]
(a) Close -up (3.4 -0.9 ppm) of the 1H NMR spectrum of synthetic 1 in 50 mM aqueous Tris-d11 containing 10% v/v D2O (pH 7.5, 2 5° C); ( b) Close -up (3.4 -0.9 ppm) of the 1H NMR spectrum of commercial 2 -methylsuccinate ( 36) […]
FIH-catalyzed oxidative decarboxylation of 4-methyl-2OG (12) was monitored using a Bruker AVIII 700 NMR machine equipped with a 5 mm 1H(13C/15N) inverse cryoprobe; spectra were analyzed using the Bruker TopSpin 3.6.1 software.
(NH4)2Fe(SO4)2·6H2O) in 50 mM aqueous Tris-d11 containing 10% v/v D2O (pH 7.5, 25° C). The ratio of the CA 1-20 peptide and the hydroxylated CA 1-20(Ox) peptide, which is the product of the FI H-catalyzed hydroxylation […]
(a) Close -up (3.3 -0.9 ppm) of the 1H NMR spectrum of synthetic 12 in 50 mM aqueous Tris-d11 containing 10% v/v D2O (pH 7.5, 25° C); ( b) Close -up (3.4 -0.9 ppm) of the 1H NMR spectrum of commercial 2 -methylsuccinate ( 36)

T1 sequence (Q9NWT6 whole entry): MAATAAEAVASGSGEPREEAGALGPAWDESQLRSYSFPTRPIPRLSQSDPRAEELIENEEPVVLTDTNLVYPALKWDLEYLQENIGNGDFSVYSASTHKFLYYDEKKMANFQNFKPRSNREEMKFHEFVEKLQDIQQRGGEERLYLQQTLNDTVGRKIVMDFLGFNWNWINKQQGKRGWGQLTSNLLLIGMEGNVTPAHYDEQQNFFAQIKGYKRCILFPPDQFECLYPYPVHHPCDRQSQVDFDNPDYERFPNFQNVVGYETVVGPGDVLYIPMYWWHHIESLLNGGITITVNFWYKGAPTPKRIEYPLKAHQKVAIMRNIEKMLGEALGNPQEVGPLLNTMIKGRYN

| Compound | FIH Kmapp for 2OG (FIH [1]) [µM] | FIH vmaxapp for 2OG (FIH [1]) | hydroxylation of CA1-20 peptide in final reaction mixture (SPE-MS) (FIH [2]) [%] | FIH-catalyzed conversion of cosubstrate to succinate / 2-methylsuccinate (1H NMR) (FIH [2]) |
| --- | --- | --- | --- | --- |
| O=C(O)CCC(=O)C(=O)O [2OG, 2-Oxoglutarate] | 0.74 ± 0.07 | 5.9 ± 0.1 10-3 μM·s-1 | > 95 | ~ 70% |
| CC(CC(=O)O)C(=O)C(=O)O (stereo not drawn) [compound 1, 3-methyl-2OG] | – | – | > 90 | ~ 70% |
